Assay results: patent publication US6737383B1, “Herbicidal oxadiazolidines” (priority 1999, dated 2004)

What was measured:
bedstraw = test: Test B pre/postemergence bedstraw; assay type: in vivo, Galium aparine
Summary of the method: (§1)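 Response is a visual 0-to-10 score relative to untreated plants, where 0 means no effect and 10 means complete control, taken twelve to sixteen days after application. Treatments went onto soil at planting and onto foliage of 1- to 4-leaf plants, using a surfactant-containing non-phytotoxic solvent.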

blackgrass = test: Test B pre/postemergence blackgrass; assay type: in vivo, Alopecurus myosuroides
Summary of the method: as §1

surinam grass = test: Test B pre/postemergence surinam grass; assay type: in vivo, Brachiaria decumbens
Summary of the method: as §1

cocklebur = test: Test B pre/postemergence cocklebur; assay type: in vivo, Xanthium strumarium
Summary of the method: as §1

corn = test: Test B pre/postemergence corn; assay type: in vivo, Zea mays
Summary of the method: as §1

giant foxtail = test: Test B pre/postemergence giant foxtail; assay type: in vivo, Setaria faberii
Summary of the method: as §1

morningglory = test: Test B pre/postemergence morningglory; assay type: in vivo, Ipomoea hederacea
Summary of the method: as §1

pigweed = test: Test B pre/postemergence pigweed; assay type: in vivo, Amaranthus retroflexus
Summary of the method: as §1

rape = test: Test B pre/postemergence rape; assay type: in vivo, Brassica napus
Summary of the method: as §1

soybean = test: Test B pre/postemergence soybean; assay type: in vivo, Glycine max
Summary of the method: as §1

sugar beet = test: Test B pre/postemergence sugar beet; assay type: in vivo, Beta vulgaris
Summary of the method: as §1

velvetleaf = test: Test B pre/postemergence velvetleaf; assay type: in vivo, Abutilon theophrasti
Summary of the method: as §1

purple nutsedge = test: Test B pre/postemergence purple nutsedge; assay type: in vivo, Cyperus rotundus
Summary of the method: as §1

smallflower flatsedge = test: Test B flood test smallflower flatsedge; assay type: in vivo, Cyperus difformis
Summary of the method: (§2)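 Flood test on plants grown to the 2-leaf stage; treated plants kept in greenhouse twelve to sixteen days, then visually rated against controls on a 0 (no effect) to 10 (complete control) scale.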

duck salad = test: Test B flood test duck salad; assay type: in vivo, Heteranthera limosa
Summary of the method: as §2

bamyardgrass = test: Test B flood test barnyardgrass; assay type: in vivo, Echinochloa crus-galli
Summary of the method: as §2

[1] = Postemergence, Rate 62 g/ha, scale 0 to 10, 0 is no effect, 10 is complete control
[2] = Preemergence, Rate 62 g/ha, scale 0 to 10 (0 no effect, 10 complete control)
[3] = Preemergence, Rate 125 g/ha, scale of 0 to 10 where 0 is no effect and 10 is complete control
[4] = Preemergence, Rate 500 g/ha, scale of 0 to 10 where 0 is no effect and 10 is complete control
[5] = Postemergence, Rate 125 g/ha, scale of 0 to 10 where 0 is no effect and 10 is complete control
[6] = Postemergence, Rate 250 g/ha, scale of 0 to 10, 0 is no effect, 10 is complete control
[7] = Postemergence, Rate 500 g/ha, scale of 0 to 10 where 0 is no effect and 10 is complete control
[8] = Rate 62 g/ha, flood test species, Pre-emergence, visual evaluation after twelve to sixteen days
[9] = Rate 125 g/ha, under heading Pre-emergence, flood test species, visual evaluation after twelve to sixteen days
[10] = Rate 250 g/ha, Pre-emergence (flood test species), scale 0 to 10, 0 is no effect, 10 is complete control
[11] = Rate 500 g/ha, Pre-emergence section of Table B, 0 to 10 scale (0 no effect, 10 complete control)

C=C(Cn1c(=O)on(C(=O)N(c2ccccc2)C(C)C)c1=O)c1cccc(Cl)n1 [Compound 605]
10: Giant foxtail plant response rating (giant foxtail; [3]) | Plant response rating, Giant foxtail (giant foxtail; [4]) | Plant response rating, Morningglory (morningglory; [7])
5: Plant response rating, Soybean (soybean; [7])
2: Plant response rating, Giant foxtail (giant foxtail; [7]) | Giant foxtail plant response rating (giant foxtail; [2]) | Plant response rating, Soybean (soybean; [1]) | Plant response rating, Soybean (soybean; [5])
6: Plant response rating, Morningglory (morningglory; [5])
9: Morningglory plant response rating (morningglory; [6])
0: Plant response rating, Bedstraw (bedstraw; [1]) | Bedstraw plant response rating (bedstraw; [2]) | Bedstraw plant response rating (bedstraw; [3]) | Bedstraw plant response rating (0 to 10 scale) (bedstraw; Preemergence, Rate 250 g/ha) | Bedstraw plant response rating (bedstraw; [4]) | Plant response rating, Blackgrass (blackgrass; [1]) | Plant response rating, Blackgrass (blackgrass; [5]) | Blackgrass plant response rating (blackgrass; [6]) | Plant response rating, Blackgrass (blackgrass; [7]) | Blackgrass plant response rating (blackgrass; [2]) | Blackgrass plant response rating (blackgrass; [3]) | Blackgrass plant response rating (0 to 10 scale) (blackgrass; Preemergence, Rate 250 g/ha) | Blackgrass plant response rating (blackgrass; [4]) | Plant response rating, B. signalgrass (surinam grass; [1]) | Plant response rating, B. signalgrass (surinam grass; [5]) | B. signalgrass plant response rating (surinam grass; [6]) | Plant response rating, B. signalgrass (surinam grass; [7]) | B. signalgrass plant response rating (surinam grass; [2]) | B. signalgrass plant response rating (surinam grass; [3]) | B. signalgrass plant response rating (0 to 10 scale, 0 is no effect, 10 is complete control) (surinam grass; Preemergence, Rate 250 g/ha) | B. signalgrass plant response rating (surinam grass; [4]) | Plant response rating, Cocklebur (cocklebur; [1]) | Plant response rating, Cocklebur (cocklebur; [5]) | Cocklebur plant response rating (cocklebur; [6]) | Plant response rating, Cocklebur (cocklebur; [7]) | Cocklebur plant response rating (cocklebur; [2]) | Cocklebur plant response rating (cocklebur; [3]) | Cocklebur plant response rating (0 to 10 scale) (cocklebur; Preemergence, Rate 250 g/ha) | Plant response rating, Cocklebur (cocklebur; [4]) | Plant response rating, Corn (corn; [1]) | Plant response rating, Corn (corn; [5]) | Corn plant response rating (corn; [6]) | Plant response rating, Corn (corn; [7]) | Corn plant response rating (corn; [2]) | Corn plant response rating (corn; [3]) | Corn plant response rating (0 to 10 scale) (corn; Preemergence, Rate 250 g/ha) | Plant response rating, Corn (corn; [4]) | Plant response rating, Giant foxtail (giant foxtail; [1]) | Plant response rating, Giant foxtail (giant foxtail; [5]) | Giant foxtail plant response rating (giant foxtail; [6]) | Morningglory plant response rating (morningglory; [2]) | Morningglory plant response rating (morningglory; [3]) | Plant response rating, Redroot pigweed (pigweed; [1]) | Plant response rating, Redroot pigweed (pigweed; [5]) | Redroot pigweed plant response rating (pigweed; [6]) | Plant response rating, Redroot pigweed (pigweed; [7]) | Redroot pigweed plant response rating (pigweed; [2]) | Redroot pigweed plant response rating (pigweed; [3]) | Plant response rating, Redroot pigweed (pigweed; [4]) | Plant response rating, Rape (rape; [1]) | Plant response rating, Rape (rape; [5]) | Rape plant response rating (rape; [6]) | Plant response rating, Rape (rape; [7]) | Rape plant response rating (rape; [2]) | Rape plant response rating (rape; [3]) | Plant response rating, Rape (rape; [4]) | Soybean plant response rating (soybean; [2]) | Soybean plant response rating (soybean; [3]) | Plant response rating, Soybean (soybean; [4]) | Plant response rating, Sugarbeets (sugar beet; [1]) | Plant response rating, Sugarbeets (sugar beet; [5]) | Sugarbeets plant response rating (sugar beet; [6]) | Plant response rating, Sugarbeets (sugar beet; [7]) | Sugarbeets plant response rating (sugar beet; [2]) | Sugarbeets plant response rating (sugar beet; [3]) | Plant response rating, Sugarbeets (sugar beet; [4]) | Plant response rating, Velvetleaf (velvetleaf; [1]) | Plant response rating, Velvetleaf (velvetleaf; [5]) | Velvetleaf plant response rating (velvetleaf; [6]) | Plant response rating, Velvetleaf (velvetleaf; [7]) | Velvetleaf plant response rating (velvetleaf; [2]) | Velvetleaf plant response rating (velvetleaf; [3]) | Plant response rating, Velvetleaf (velvetleaf; [4]) | Plant response rating, Nutsedge (purple nutsedge; [1]) | Plant response rating, Nutsedge (purple nutsedge; [5]) | Nutsedge plant response rating (purple nutsedge; [6]) | Plant response rating, Nutsedge (purple nutsedge; [7]) | Nutsedge plant response rating (purple nutsedge; [2]) | Nutsedge plant response rating (purple nutsedge; [3]) | Plant response rating, Nutsedge (purple nutsedge; [4]) | Plant response rating, S. Flatsedge (0 to 10 scale, 0 is no effect, 10 is complete control) (smallflower flatsedge; [8]) | S. Flatsedge plant response rating (0 to 10 scale, 0 is no effect, 10 is complete control) (smallflower flatsedge; [9]) | S. Flatsedge plant response rating (smallflower flatsedge; [10]) | S. Flatsedge plant response rating (smallflower flatsedge; [11]) | Plant response rating, Ducksalad (0 to 10 scale, 0 is no effect, 10 is complete control) (duck salad; [8]) | Ducksalad plant response rating (0 to 10 scale, 0 is no effect, 10 is complete control) (duck salad; [9]) | Ducksalad plant response rating (duck salad; [10]) | Ducksalad plant response rating (duck salad; [11]) | Plant response rating, Barnyardgrass (0 to 10 scale, 0 is no effect, 10 is complete control) (bamyardgrass; [8]) | Barnyardgrass plant response rating (0 to 10 scale, 0 is no effect, 10 is complete control) (bamyardgrass; [9]) | Barnyardgrass plant response rating (bamyardgrass; [10]) | Barnyardgrass plant response rating (bamyardgrass; [11])
3: Soybean plant response rating (soybean; [6])
